From US20080045537A1, “Chemical Compounds” (priority 2004, published 2008)
Where two headings read alike, the source gives them in different places.

Legend:
[1] = test system: T-tropic HIV; details: patients that are dual tropic or have only the T-tropic form of the virus; cited from earlier work
[2] = target: T1, human CXCR4 (Homo sapiens, UniProt P61073); assay: Functional FLIPR assay (block of SDF-1 alpha induced [Ca2+]i change); type: cell-based; details: HEK-293 cells with human CXCR4 BacMam and Gqi5 BacMam; antagonism of SDF-1 alpha; read-out: Functional assay (pIC50) (converted)
T1 construct: expressed in transfected cells; host or cells: HEK-293 cells (stably expressing human macrophage scavenging receptor) transduced with human CXCR4 BacMam and Gqi5 BacMam baculoviruses
T1 sequence (P61073 whole entry): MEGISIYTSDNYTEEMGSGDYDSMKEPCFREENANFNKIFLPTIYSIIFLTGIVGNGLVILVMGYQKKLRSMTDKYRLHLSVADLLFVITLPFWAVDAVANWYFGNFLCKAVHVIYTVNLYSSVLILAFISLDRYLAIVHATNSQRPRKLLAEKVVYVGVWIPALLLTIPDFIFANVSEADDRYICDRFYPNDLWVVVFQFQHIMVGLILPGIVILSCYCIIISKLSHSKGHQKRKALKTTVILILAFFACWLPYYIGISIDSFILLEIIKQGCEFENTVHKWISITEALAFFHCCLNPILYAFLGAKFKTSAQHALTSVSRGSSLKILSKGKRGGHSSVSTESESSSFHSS
Outline: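 HEK-293 cells transduced with human CXCR4 (MOI=25) and Gqi5 (MOI=12.5) BacMam were expressed 24 h at 37° C, then loaded 1 h with calcium dye in probenecid medium. Block of the SDF-1 alpha (EC80) [Ca2+]i response was read on FLIPR; IC50 converted to pKb via the Leff and Dougall equation.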

[3] = test system: HIV-1 gp160 (from the HXB2 HIV strain); assay: Cell/cell fusion assay (HEK-293 expressing HIV-1 tat, rev, gp160 with HOS hCXCR4/hCCR5/hCD4/pHIV-LTR-luciferase cells); type: cell-based; details: Human immunodeficiency virus 1, HXB2, HEK293, 24 h, read-out: Fusion assay (pIC50), luciferase readout after 24 h (converted)
Outline: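 HEK-293 cells BacMam-transduced (MOI 10 each, 2 mM butyric acid, 24 h) to express HIV-1 tat, rev and HXB2 gp160 were mixed with HOS hCXCR4/hCCR5/hCD4 LTR-luciferase cells, 20,000 each per well, on DMSO compound spots in 2% FCS media. Fusion read as luciferase luminescence after 24 h at 37 °C.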

[4] = test system: HIV-1 IIIB (T-tropic, CXCR4 utilizing); assay: HOS HIV-1 infectivity assay; type: cell-based
Outline: (§1)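 Cytotoxicity was measured by CellTiter-Glo in virus-free cultures, while antiviral activity used Steady-Glo luciferase after 96 h infection with T-tropic IIIB virus (~2 million RLU/well). Both used HOS hCXCR4/hCCR5/hCD4/pHIV-LTR-luciferase cells in 2% FCS DMEM, with compound added 1 h before virus.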

[5] = Compound cytotoxicity in the absence of virus addition (CellTiter-Glo); type: cell-based; details: human; non-infected HOS cultures; read-out: Cytotox (pIC50) (converted)
Outline: as §1

Row | Structure (SMILES) | T-tropic HIV viral load [1] | IC50 [2] | IC50 [3] | IC50 ([4]; Human immunodeficiency virus 1, IIIB, as determined by the infectivity assay, strain not stated in Table 2, read-out: Activity Level) | IC50 ([4]; Human immunodeficiency virus 1, HIV-1 IIIB, HOS cells, 96 h, luciferase readout, read-out: HOS (3B)) | IC50 at 96 h [5]
1 | c1cc(CN2CCCNCCNCCCNCC2)ccc1CN1CCCNCCNCCCNCC1 [AMD-3100] | significantly reduce T-tropic HIV viral load | – | – | – | – | –
2 | CN1CCN(c2cccc3nc(CN(C)C4CCCc5cccnc54)[nH]c23)CC1 (stereo not drawn) [Example 35, N-methyl-N-{[4-(4-methyl-1-piperazinyl)-1H-benzimidazol-2-yl]methyl}-5,6,7,8-tetrahydro-8-quinolinamine] | – | 5.89 nM | 0.389 nM | < 100 nM | 1.6 nM | > 100000 nM
